Results published in patent publication US8080377B2, “Method for confirming the exposure on chrysene” (Korea Institute of Science and Technology, priority 2008, dated 2011).

System: HepG2 cells
Assay: Quantitative real time RT-PCR of genes up- or down-regulated by chrysene
Type: cell-based, human
Protocol: […]
To investigate and quantify the expressions of those genes, primers which can specifically proliferate of those genes' mRNA (see Table 4) were prepared, and quantitative real time RT-PCR was performed using My IQ Real-time PCR (Bio-rad, USA). […] To quantify PCR product, SYBR Green I (Bio-rad, USA) staining was performed. SYBR Green I staining is based on binding to double stranded DNA, so that as double stranded DNA increases during PCR, fluorescence intensity increases. […]

c1ccc2c(c1)ccc1c3ccccc3ccc21 [chrysene]
expression profiles of 25 up-regulated genes and 10 down-regulated genes: consistent with the result of oligo-microarray
